Test [1] relates to Escherichia coli ATCC 25922. Put plainly: Inhibition of FtsZ in Escherichia coli ATCC 25922 assessed as growth inhibition at 100 ug per disc after 18 to 24 hrs by paper disc agar diffusion assay.
Test [2] has as its system Mycolicibacterium smegmatis. As to the kind of experiment: Inhibition of FtsZ in Mycobacterium smegmatis ATCC 607 assessed as growth inhibition at 100 ug per disc after 18 to 24 hrs by paper disc agar diffusion assay. A general note: Agar diffusion results depend on both activity and mobility in agar.
The test system of test [3] is Pseudomonas aeruginosa. Put plainly: Inhibition of FtsZ in Pseudomonas aeruginosa ATCC 9027 assessed as growth inhibition at 100 ug per disc after 18 to 24 hrs by paper disc agar diffusion assay.
Test [4] deals with Aspergillus niger. As to the kind of experiment: Antifungal activity against Aspergillus niger ATCC 16404 at 100 ug per disc after 3 to 5 days by paper disc agar diffusion assay. The test is classed as functional.
Test [5] deals with Klebsiella pneumoniae. Put plainly: Inhibition of FtsZ in Klebsiella pneumoniae ATCC 9621 assessed as growth inhibition at 100 ug per disc after 18 to 24 hrs by paper disc agar diffusion assay.
Test [6] deals with T1, Cell division protein FtsZ (Staphylococcus aureus) (UniProt P0A031).
T1 sequence (whole entry): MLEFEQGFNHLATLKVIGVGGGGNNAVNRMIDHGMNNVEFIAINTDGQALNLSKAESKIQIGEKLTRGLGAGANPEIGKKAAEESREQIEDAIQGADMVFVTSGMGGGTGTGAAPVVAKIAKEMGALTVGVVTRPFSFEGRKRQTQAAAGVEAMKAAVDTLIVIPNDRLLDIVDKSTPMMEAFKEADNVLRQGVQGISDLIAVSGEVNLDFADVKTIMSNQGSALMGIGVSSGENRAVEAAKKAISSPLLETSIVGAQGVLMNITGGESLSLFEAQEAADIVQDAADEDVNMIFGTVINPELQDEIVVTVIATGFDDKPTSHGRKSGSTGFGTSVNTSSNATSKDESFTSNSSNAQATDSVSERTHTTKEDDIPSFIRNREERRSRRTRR
As to the kind of experiment: Inhibition of FtsZ in Staphylococcus aureus ATCC 6538P assessed as growth inhibition at 100 ug per disc after 18 to 24 hrs by paper disc agar diffusion assay.

Test [7] has as its system Bacillus subtilis subsp. spizizenii ATCC 6633 = JCM 2499. As to the kind of experiment: Inhibition of FtsZ in Bacillus subtilis ATCC 6633 assessed as growth inhibition at 100 ug per disc after 18 to 24 hrs by paper disc agar diffusion assay.
Test [8] concerns Candida albicans. As to the kind of experiment: Antifungal activity against Candida albicans ATCC 10231 at 100 ug per disc after 3 to 5 days by paper disc agar diffusion assay. The test is classed as functional.
Test [9] has as its system Mycolicibacterium smegmatis. As to the kind of experiment: Inhibition of FtsZ in Mycobacterium smegmatis ATCC 607 assessed as ratio of diameter of zone inhibition of test compound to diameter of zone inhibition of streptomycin at 100 ug per disc after 18 to 24 hrs by paper disc agar diffusion assay.
Test [10] concerns Klebsiella aerogenes. As to the kind of experiment: Inhibition of FtsZ in Klebsiella aerogenes ATCC 9621 assessed as growth inhibition at 100 ug per disc after 18 to 24 hrs by paper disc agar diffusion assay.
Test [11] concerns Bacillus subtilis subsp. spizizenii ATCC 6633 = JCM 2499. Put plainly: Inhibition of FtsZ in Bacillus subtilis ATCC 6633 assessed as ratio of diameter of zone inhibition of test compound to diameter of zone inhibition of tetracycline at 100 ug per disc after 18 to 24 hrs by paper disc agar diffusion assay.

The source made the active and inactive calls. The calls are words filed in the database; no cut-off is given here.

Take `NC(=O)c1c(F)ccc(OCCCOC(=O)c2ccccc2)c1F`: the inhibition result in test [1], in test [2], in [3], in [5], in test [6] and in test [7] was “inactive” each time. In addition, the outcome in test [4] and in test [8] was inactive.

Turning to `COc1ccc(OC(=O)COc2ccc(F)c(C(N)=O)c2F)cc1`, the inhibition result in [1], in test [3], in test [10] and in [6] was “inactive” in each case. In addition, the outcome in test [4] and in [8] was inactive. The Ratio in [9] was found to be 0.19; in test [11] it was 0.15.

With `NC(=O)c1c(F)ccc(OCCOC(=O)c2ccccc2)c1F`, the inhibition result in [1], in [2], in test [3], in [5], in test [6] and in [7] was “inactive” each time. The result in test [4] and in test [8] was inactive.
